Reference: patent publication US11001613B2, “TFPI inhibitors and methods of use” (priority 2008, dated 2021)
One block for each molecule: values may come before it. Residues, ends and D or L forms follow the SMILES beside them.

Legend:
[1] = system: TFPI-dependent thrombin generation in FVIII deficient plasma; test: thrombin generation (calibrated automated thrombography) in FVIII deficient plasma; details: plasma-based assay, FIGS. 11A and 11B
TFPI-1 = biological target: T1, TFPI-1 (Homo sapiens, UniProt P10646); test: FXa inhibition assay; type: biochemical; details: OD readings after 115 minutes
T1 sequence (P10646 29-304): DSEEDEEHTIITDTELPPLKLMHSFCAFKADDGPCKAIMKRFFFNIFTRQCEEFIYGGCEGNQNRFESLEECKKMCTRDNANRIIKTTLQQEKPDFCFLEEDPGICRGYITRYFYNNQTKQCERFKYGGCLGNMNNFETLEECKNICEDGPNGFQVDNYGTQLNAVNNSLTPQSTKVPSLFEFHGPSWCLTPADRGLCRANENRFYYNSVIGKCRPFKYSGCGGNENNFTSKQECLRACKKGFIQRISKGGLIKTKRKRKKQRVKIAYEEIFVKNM

[2] = in vivo, iv, 10 mg/kg

SMILES: CSCC[C@@H]1NC(=O)CNC(=O)[C@@H](NC(=O)[C@H](Cc2ccccc2)NC(=O)[C@H](Cc2c[nH]c3ccccc23)NC(=O)[C@H](CCCCN)NC(=O)[C@H](Cc2ccc(O)cc2)NC(=O)[C@H](CCCNC(=N)N)NC(=O)[C@H](CO)NC(=O)[C@H](C)NC(=O)CNC(=O)[C@H](CO)NC(C)=O)CSSC[C@@H](C(=O)N[C@H](C(=O)N[C@@H](Cc2c[nH]c3ccccc23)C(=O)N[C@H](C(=O)N[C@@H](CCCCN)C(=O)N[C@@H](Cc2ccccc2)C(=O)N[C@@H](CCCNC(=N)N)C(=O)N[C@@H](Cc2ccc(O)cc2)C(=O)N[C@@H](CC(=O)O)C(=O)N[C@H](C(=O)N[C@@H](CO)C(N)=O)[C@@H](C)O)C(C)C)C(C)C)NC(=O)[C@H](CO)NC(=O)[C@H](CCSC)NC(=O)[C@H]([C@@H](C)O)NC(=O)CNC(=O)[C@H](CCCCN)NC(=O)[C@H](CCSC)NC(=O)[C@H](CC(=O)O)NC(=O)[C@H](CCCNC(=N)N)NC1=O [JBT0120]
- peak thrombin and peak time [1]: improved peak thrombin and peak time, dose dependently

- EC50 (TFPI-1): 600 nM
SMILES: CC(=O)N[C@@H](Cc1ccccc1)C(=O)N[C@@H](CCC(N)=O)C(=O)N[C@@H](CO)C(=O)N[C@@H](CCCCN)C(=O)N[C@@H](CC(N)=O)C(=O)N[C@@H](CC(N)=O)C(=O)N[C@H](C(=O)N[C@@H](Cc1ccccc1)C(=O)N[C@H](C(=O)N[C@@H](Cc1ccccc1)C(=O)NCC(=O)N[C@@H](Cc1ccc(O)cc1)C(=O)N[C@@H](Cc1ccccc1)C(=O)N[C@@H](CCC(=O)O)C(=O)N[C@@H](CCCNC(=N)N)C(=O)N[C@@H](CC(C)C)C(=O)N[C@@H](CCCNC(=N)N)C(=O)N[C@@H](C)C(=O)N[C@@H](CCCCN)C(=O)N[C@@H](CC(C)C)C(N)=O)C(C)C)C(C)C [JBT0297] (Ac-FQSKNNVFVFGYFERLRAKL-NH2)

- concentration of peptide in mouse plasma over time [2]: rapidly cleared from the plasma
SMILES: CC(=O)N[C@@H](Cc1ccccc1)C(=O)N[C@@H](CCC(N)=O)C(=O)N[C@@H](CO)C(=O)N[C@@H](CCCCN)C(=O)NCC(=O)N[C@@H](CC(N)=O)C(=O)N[C@H](C(=O)N[C@@H](Cc1ccccc1)C(=O)N[C@H](C(=O)N[C@@H](CC(=O)O)C(=O)NCC(=O)N[C@@H](Cc1ccc(O)cc1)C(=O)N[C@@H](Cc1ccccc1)C(=O)N[C@@H](CCC(=O)O)C(=O)N[C@@H](CCCNC(=N)N)C(=O)N[C@@H](CC(C)C)C(=O)NC(C)(C)C(=O)N[C@@H](C)C(=O)N[C@@H](CCCCN)C(=O)N[C@@H](CC(C)C)C(N)=O)C(C)C)C(C)C [JBT0740]
